Source: patent US9000045B2, “CETP activity inhibitors” (Japan Tobacco Inc., priority 1997, dated 2015)
pIC50: −log10 of the molar value.

What was measured:
[1] = target: T1, CETP (Homo sapiens, UniProt P11597); assay: Ex vivo CETP activity inhibitory effect of plasma from transgenic mice; design: from tissue; host or cells: plasma of transgenic mice carrying the human CETP gene; settings: mouse, po, p.o., 6 hours after administration, transgenic mice with human CETP gene, read-out: CETP activity inhibitory rate in plasma from transgenic mouse
T1 sequence (P11597 18-493): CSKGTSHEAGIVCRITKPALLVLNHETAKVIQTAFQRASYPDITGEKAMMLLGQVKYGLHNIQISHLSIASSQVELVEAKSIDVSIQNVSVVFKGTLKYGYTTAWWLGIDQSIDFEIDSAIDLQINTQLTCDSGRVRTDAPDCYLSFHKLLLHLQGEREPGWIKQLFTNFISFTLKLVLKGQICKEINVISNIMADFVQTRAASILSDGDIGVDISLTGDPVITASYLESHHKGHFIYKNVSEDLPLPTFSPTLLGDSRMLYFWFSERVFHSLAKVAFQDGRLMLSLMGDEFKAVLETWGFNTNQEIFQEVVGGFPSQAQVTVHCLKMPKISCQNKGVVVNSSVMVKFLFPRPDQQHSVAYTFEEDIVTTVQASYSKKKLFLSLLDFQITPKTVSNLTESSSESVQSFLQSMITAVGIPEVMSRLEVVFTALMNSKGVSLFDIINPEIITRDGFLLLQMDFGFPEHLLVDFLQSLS
Method: Potassium bromide (KBr) was added to the plasma of healthy subjects (40 ml) to adjust specific gravity to d=1.125 g/ml. Density gradient centrifugation (227,000×g, 4° C., 17 hours) was conducted to obtain a fraction with specific gravity d>1.125 g/ml (HDL3 fraction). The fraction thus obtained was dialyzed against a PBS solution [10 mM Na2HPO4/10 mM NaH2PO4/0.15 M NaCl/1 mM EDTA (pH 7.4)]. Then, tritium-labeled cholesterol (10 nM) (50.3 Ci/mM) was dissolved in 95% ethanol and added gradually to the above HDL3 fraction under stirring. The solution was incubated for 18 hours at 37° C. [Tritium-labeled cholesterol was esterified by this procedure by the action of lecithin:cholesterol acyltransferase (LCAT) present on the surface of HDL3 and taken up into the interior of HDL3 as tritium-labeled cholesterylester ([^3H]CE)]. After incubation, KBr was added and specific gravity was adjusted to d=1.21 g/ml. Density gradient centrifugation (227,000×g, 4° C., 17 hours) was conducted and the fraction with d<1.21 g/ml was harvested. The fraction thus obtained was dialyzed against the above PBS solution to obtain HDL3 that took up [^3H]CE ([^3H]CE-HDL3, specific gravity: 1.125<d<1.21, specific activity: 101,000 dpm/nM), which served as donor lipoprotein.
Physiological saline (specific gravity d=1.006 g/ml) was layered upon the plasma of healthy subjects (100 ml). Density gradient centrifugation (227,000×g, 4° C., 4 hours) was conducted and the fraction with specific gravity d>1.006 g/ml was harvested. KBr was added to the fraction thus obtained to adjust specific gravity to d=1.063 g/ml and density gradient centrifugation (227,000×g, 4° C., 20 hours) was conducted to harvest the fraction with specific gravity […]. The thus-obtained fraction was dialyzed against the above PBS solution to obtain fractions containing IDL and LDL (specific gravity: 1.006<d<1.063), which served as acceptor lipoprotein.
Samples were suspended in a 0.5% methylcellulose solution and administered orally using a plastic probe to transgenic mice having introduced human CETP gene (hereafter referred to as mice; prepared using the method described in Japanese Patent Application No. Hei 8-130660), which had been fasted overnight. Blood was collected before administration, and 6 hours after administration CETP activity in the plasma was determined using the following method.
Donor lipoprotein ([^3H]CE-HDL3, containing 0.21 μg cholesterol) obtained in the above (1), acceptor lipoprotein obtained in the above (2) (containing 21 μg of cholesterol), and 0.9 μl of mice plasma were added to microtubes. A total volume was adjusted to 600 μl/tube with a TBS solution [10 mM Tris/0.15 M NaCl (pH 7.4)]. The microtubes were incubated for 15 hours at 37° C. or 4° C. Then, an ice-cooled TBS solution (400 μl/tube) and a 0.3% dextran sulfate solution (100 μl/tube) containing 0.15 M magnesium chloride were added to the microtubes and mixed well. After allowing the microtubes to stand for 30 minutes at 4° C., centrifugation (8,000 rpm, 4° C., 10 minutes) was carried out and radioactivity of the resulting supernatant (HDL fraction) was determined with a scintillation counter.

[2] = target: T1, CETP; assay: In vitro CETP activity inhibitory effect in whole plasma; format: biochemical; design: Plasma containing [^3H]CE-HDL3 (600,000 dpm/ml) was prepared by adding donor lipoprotein obtained in the above (1) to plasma from healthy subjects; from tissue; host or cells: whole plasma of healthy subjects; settings: plasma from healthy subjects containing [3H]CE-HDL3, incubated 4 hours at 37° C.; read-out: CETP activity inhibition in whole plasma IC50
Method: The fraction thus obtained was dialyzed against a PBS solution [10 mM Na2HPO4/10 mM NaH2PO4/0.15 M NaCl/1 mM EDTA (pH 7.4)]. Then, tritium-labeled cholesterol (10 nM) (50.3 Ci/mM) was dissolved in 95% ethanol and added gradually to the above HDL3 fraction under stirring. The solution was incubated for 18 hours at 37° C. […] After incubation, KBr was added and specific gravity was adjusted to d=1.21 g/ml. […] A sample solution was prepared using a 1:1 solution of N-methylpyrrolidone and polyethyleneglycol 400 as a solvent. […] Based on the inhibition rate (%) of CETP activity, IC50 value of each sample was calculated.

Structure (SMILES) | inhibition at 100 mg/kg [1] | pIC50 [2] | inhibition at 10 mg/kg [1] | inhibition at 30 mg/kg [1]
CC(C)CCC1(C(=O)Nc2ccccc2SSc2ccccc2NC(=O)C2(CCC(C)C)CCCCC2)CCCCC1 [Example 8] | 25% | 5.52 |  | 
CC(C)CCC1(C(=O)Nc2ccccc2S)CCCCC1 [Example 11, N-(2-mercaptophenyl)-1-isopentylcyclohexanecarboxamide] | 57% | 5.30 | 27% | 45%
CC(C)C1(C(=O)Nc2ccccc2S)CCCCC1 [Example 14] |  | 5.10 |  | 9%
Cc1ccc(S)c(NC(=O)C2(CCC(C)C)CCCCC2)c1 [Example 22] |  | 4.25 | 22% | 44%
Cc1cccc(NC(=O)C2(CCC(C)C)CCCCC2)c1S [Example 23] |  |  |  | 18%
Cc1ccc(NC(=O)C2(CCC(C)C)CCCCC2)c(S)c1 [Example 24] |  | 4.54 |  | 29%
CC(=O)Sc1ccccc1NC(=O)C1(CCC(C)C)CCCCC1 [Example 25, S[2-(1-isopentylcyclohexanecarbonylamino)phenyl]thioacetate] | 52% | 4.96 | 19% | 45%
CCC(CC)CC1(C(=O)Nc2ccccc2SC(=O)C(C)C)CCCCC1 [Example 26, S-[2-[1-(2-ethylbutyl)cyclohexanecarbonylamino]-phenyl]2-methylthiopropionate] |  | 5.15 |  | 44%
CC(C)(C)C(=O)Sc1cc(Cl)c(Cl)cc1NC(=O)C1(CC2CC2)CCCCC1 [Example 70] |  | 5.40 |  | 
CC(C)(C)C(=O)Sc1cc(Cl)c(Cl)cc1NC(=O)C1(CC2CCCCC2)CCCCC1 [Example 71] |  | 5.40 |  | 
CC(C)CCC1(C(=O)Nc2cc(Cl)c(Cl)cc2SC(=O)C(C)(C)C)CCCCCC1 [Example 72] |  | 4.13 |  | 
CC(C)CCC1(C(=O)Nc2cc(Cl)c(Cl)cc2SC(=O)C(C)(C)C)CCC1 [Example 73] |  | 4.43 |  | 
COc1ccc(SC(=O)C(C)(C)C)c(NC(=O)C2(CCC(C)C)CCCCC2)c1 [Example 78] |  |  |  | 11%
CC(C)CCC1(C(=O)Nc2cc(Cl)c(Cl)cc2SSc2cc(Cl)c(Cl)cc2NC(=O)C2(CCC(C)C)CCCCC2)CCCCC1 [Example 82, bis-[4,5-dichloro-2-(1-isopentylcyclohexane-carbonylamino)phenyl]disulfide] |  | 5.15 |  | 
CC(C)CCC1(C(=O)Nc2ccccc2SSCC2CCCO2)CCCCC1 (stereo not shown) [Example 83, 2-tetrahydrofurylmethyl 2-(1-isopentylcyclohexane-carbonylamino)phenyl disulfide] |  | 5.30 |  | 
CC(C)(C)C(=O)Nc1ccccc1SSc1ccccc1 [Example 84, phenyl 2-pivaloylaminophenyl disulfide] |  | 3.80 |  | 

The remaining lines, values ahead:

inhibition at 100 mg/kg [1] | pIC50 [2] | inhibition at 10 mg/kg [1] | inhibition at 30 mg/kg [1] | Structure (SMILES)
 | 4.89 |  | 21% | CC(=O)N[C@H](C(=O)Sc1ccccc1NC(=O)C1(CCC(C)C)CCCCC1)C(C)C [Example 25-45]
35% | 5.05 |  |  | CC(C)CCC1(C(=O)Nc2ccccc2SC(=O)c2ccc([N+](=O)[O-])cc2)CCCCC1 [Example 25-46]
 | 4.68 |  | 16% | CC(C)CCC1(C(=O)Nc2ccccc2SC(=O)c2ccccc2Cl)CCCCC1 [Example 25-49]
 | 4.17 | 19% | 40% | CC(=O)OC(C)(C)C(=O)Sc1ccccc1NC(=O)C1(CCC(C)C)CCCCC1 [Example 25-52]
 | 5.15 |  | 26% | CC(C)CCC1(C(=O)Nc2ccccc2SC(=O)C2CCN(C)CC2)CCCCC1 [Example 25-53]
 | 5.15 |  | 24% | CC(=O)NC1(C(=O)Sc2ccccc2NC(=O)C2(CCC(C)C)CCCCC2)CCCCC1 [Example 25-56]
 | 5.15 | 18% | 46% | CSCC[C@H](NC(C)=O)C(=O)Sc1ccccc1NC(=O)C1(CCC(C)C)CCCCC1 [Example 25-57]
 | 5.10 | 20% | 37% | CC(C)CCC1(C(=O)Nc2ccccc2SC(=O)/C=C/c2ccccc2)CCCCC1 [Example 25-59]
 | 5.30 |  | 28% | CC(C)CCC1(C(=O)Nc2ccccc2SC(=O)Cc2ccccc2)CCCC1 [Example 25-61]
25% | 4.68 |  |  | COc1ccccc1C(=O)Sc1ccccc1NC(=O)C1(CCC(C)C)CCCC1 [Example 25-63]
17% | 5.00 |  |  | CC(=O)Sc1cc(Cl)c(Cl)cc1NC(=O)C1(CCC(C)C)CCCCC1 [Example 25-84]
19% | 5.05 |  |  | CC(C)CCC1(C(=O)Nc2ccccc2SC(=O)NC(C)(C)C)CCCCC1 [Example 25-97]
 | 4.80 |  | 25% | COc1ccc(NC(=O)Sc2ccccc2NC(=O)C2(CCC(C)C)CCCCC2)cc1 [Example 25-100]
 | 5.15 |  | 8% | CC(C)CCC1(C(=O)Nc2ccccc2SC(=O)N(C(=O)Nc2ccccc2)c2ccccc2)CCCCC1 [Example 25-101]
9% | 5.10 |  |  | CC(C)CCC1(C(=O)Nc2cc(Cl)c(Cl)cc2SC(=O)NC(C)(C)C)CCCCC1 [Example 25-102]
14% | 5.22 |  |  | CC(C)CCC1(C(=O)Nc2ccccc2SC(=O)NC(C)(C)C)CCCC1 [Example 25-105]
 | 5.00 |  | 29% | CC(C)CCC1(C(=O)Nc2ccccc2SC(=O)Nc2ccccc2)CCCC1 [Example 25-106]
 | 4.96 |  | 22% | COc1ccc(NC(=O)Sc2ccccc2NC(=O)C2(CCC(C)C)CCCC2)cc1 [Example 25-107]
8% | 5.15 |  |  | CC(C)CCC1(C(=O)Nc2cc(Cl)c(Cl)cc2SC(=O)NC(C)(C)C)CCCC1 [Example 25-108]
 | 5.30 |  |  | CC(C)CCC1(C(=O)Nc2cc(Cl)c(Cl)cc2SSc2cc(Cl)c(Cl)cc2NC(=O)C2(CCC(C)C)CCCC2)CCCC1 [Example 82-1]
